Literature values, collected in patent publication US11903921B2 (priority 2020, dated 2024).

How the values were obtained:
[1] = animal and human studies; orally in water, inhaled, intravenous
[2] = test system: influenza and respiratory tract infections; conditions: prophylaxis and treatment
SEB-exposed mice = conditions: mouse, in vivo
hyaluronan = conditions: inhibitor of hyaluronan; compared with 4-MU
ovalbumin-induced asthma = conditions: through inhibition of NF-κB activity
[3] = test system: LPS-induced acute pulmonary inflammation; conditions: 100 μmol/kg bodyweight, mouse

[HH] [Molecular hydrogen]
harmlessness [1]: essentially harmless

CCCCCCCCCCCCCCCC(=O)NCCO [PEA, palmitoylethanolamide]
efficacy and safety in influenza and respiratory tract infections [2]: effective and safe

Cc1cc(=O)oc2cc(O)ccc12 [4-MU, 7-Hydroxy-4-methyl-2H-chromen-2-one]
SEB-induced lung permeability (SEB-exposed mice): reduction in SEB-induced lung permeability
cytokine production (SEB-exposed mice): reduced cytokine production
expression of HAS-1, HAS-2, and HAS-3 (SEB-exposed mice): reduces expression of HAS-1, HAS-2, and HAS-3
levels of HA in the lungs (SEB-exposed mice): reduced levels of HA

O=c1c(O)c(-c2ccc(O)c(O)c2)oc2cc(O)ccc12 [Fisetin]
effective dose relative to 4-MU (hyaluronan): 10 times lower
expression of T(H)2-type cytokines (IL-4, IL-13, and IL-5) (basophils): powerfully suppress
efficacy in ovalbumin-induced asthma (ovalbumin-induced asthma): effective
anti-inflammatory effects compared with dexamethasone [3]: more pronounced than dexamethasone
measures of inflammation [3]: significantly reduced numerous measures of inflammation
